Assays:
Assay type in all cases: in vivo
[1] = tested on: velvetleaf (Abutilon theophrasti); experiment: Test G Pre-Emergence Protocol; details: Abutilon theophrasti, pre-emergence, 312 h, evaluated after 13 days; for pest or weed control at 15.625 g/ha: 15.625 g ai/ha; for pest or weed control at 15.625 g/ha / pest or weed control at 250 g/ha: read-out: Velvetleaf damage rating (100=total damage to plant; 0=no damage to plant); for pest or weed control at 62.5 g/ha: 62.5 g ai/ha, 100=total damage to plant, 0=no damage to plant, read-out: Velvetleaf damage rating; for pest or weed control at 250 g/ha: 250 g ai/ha
Method in brief: (§1)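 Seeds were sown in standard soil and kept one day in a glasshouse (24/16° C day/night, 14 h light, 65% humidity), then sprayed with compound in acetone/water (50:50) containing 0.5% Tween 20 at 15.625, 62.5 or 250 g/ha. Damage was scored after 13 days (0 = none, 100 = total).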

[2] = tested on: barnyardgrass (Echinochloa crus-galli); experiment: Test G Pre-Emergence Protocol; details: Echinochloa crus-galli, pre-emergence, 312 h, evaluated after 13 days; for pest or weed control at 15.625 g/ha: 15.625 g ai/ha; for pest or weed control at 15.625 g/ha / pest or weed control at 250 g/ha: read-out: Barnyardgrass damage rating (100=total damage to plant; 0=no damage to plant); for pest or weed control at 62.5 g/ha: 62.5 g ai/ha, 100=total damage to plant, 0=no damage to plant, read-out: Barnyardgrass damage rating; for pest or weed control at 250 g/ha: 250 g ai/ha
Method in brief: as §1

[3] = tested on: giant foxtail (Setaria faberi); experiment: Test G Pre-Emergence Protocol; details: Setaria faberi, pre-emergence, 312 h, evaluated after 13 days; for pest or weed control at 15.625 g/ha: 15.625 g ai/ha; for pest or weed control at 15.625 g/ha / pest or weed control at 250 g/ha: read-out: Foxtail, Giant damage rating (100=total damage to plant; 0=no damage to plant); for pest or weed control at 62.5 g/ha: 62.5 g ai/ha, 100=total damage to plant, 0=no damage to plant, read-out: Foxtail, Giant damage rating; for pest or weed control at 250 g/ha: 250 g ai/ha
Method in brief: as §1

[4] = tested on: ivy-leaved morning glory (Ipomoea hederacea); experiment: Test G Pre-Emergence Protocol; details: Ipomoea, pre-emergence, 312 h, evaluated after 13 days; for pest or weed control at 15.625 g/ha: 15.625 g ai/ha; for pest or weed control at 15.625 g/ha / pest or weed control at 250 g/ha: read-out: Morningglory, Ivy-leaved damage rating (100=total damage to plant; 0=no damage to plant); for pest or weed control at 62.5 g/ha: 62.5 g ai/ha, 100=total damage to plant, 0=no damage to plant, read-out: Morningglory, Ivy-leaved damage rating; for pest or weed control at 250 g/ha: 250 g ai/ha
Method in brief: as §1

[5] = tested on: corn (Zea mays); experiment: Test G Pre-Emergence Protocol; details: Zea mays, pre-emergence, 312 h, evaluated after 13 days; for plant injury at 15.625 g/ha: 15.625 g ai/ha; for plant injury at 15.625 g/ha / plant injury at 250 g/ha: read-out: Corn damage rating (100=total damage to plant; 0=no damage to plant); for plant injury at 62.5 g/ha: 62.5 g ai/ha, 100=total damage to plant, 0=no damage to plant, read-out: Corn damage rating; for plant injury at 250 g/ha: 250 g ai/ha
Method in brief: as §1

[6] = tested on: redroot pigweed (Amaranthus retroflexus); experiment: Test G Pre-Emergence Protocol; details: Amaranthus retroflexus, pre-emergence, 312 h, evaluated after 13 days; for pest or weed control at 15.625 g/ha: 15.625 g ai/ha; for pest or weed control at 15.625 g/ha / pest or weed control at 250 g/ha: read-out: Pigweed, Redroot damage rating (100=total damage to plant; 0=no damage to plant); for pest or weed control at 62.5 g/ha: 62.5 g ai/ha, 100=total damage to plant, 0=no damage to plant, read-out: Pigweed, Redroot damage rating; for pest or weed control at 250 g/ha: 250 g ai/ha
Method in brief: as §1

[7] = tested on: velvetleaf (Abutilon theophrasti); experiment: Test G Post-Emergence Protocol; details: Abutilon theophrasti, post-emergence, 312 h, read-out: Velvetleaf damage rating; for pest or weed control at 15.625 g/ha: 15.625 g ai/ha, evaluated after 13 days (100=total damage to plant; 0=no damage to plant); for pest or weed control at 62.5 g/ha: 62.5 g ai/ha; for pest or weed control at 62.5 g/ha / pest or weed control at 250 g/ha: evaluated after 13 days, 100=total damage to plant, 0=no damage to plant; for pest or weed control at 250 g/ha: 250 g ai/ha
Method in brief: (§2)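 Foliar application was made 8 days after sowing, using an aqueous spray of the active in acetone/water (50:50) with 0.5% Tween 20, at doses of 15.625, 62.5 or 250 g/ha. Injury was assessed 13 days later, where 100 meant the plant was fully damaged.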

[8] = tested on: barnyardgrass (Echinochloa crus-galli); experiment: Test G Post-Emergence Protocol; details: Echinochloa crus-galli, post-emergence, 312 h, read-out: Barnyardgrass damage rating; for pest or weed control at 15.625 g/ha: 15.625 g ai/ha, evaluated after 13 days (100=total damage to plant; 0=no damage to plant); for pest or weed control at 62.5 g/ha: 62.5 g ai/ha; for pest or weed control at 62.5 g/ha / pest or weed control at 250 g/ha: evaluated after 13 days, 100=total damage to plant, 0=no damage to plant; for pest or weed control at 250 g/ha: 250 g ai/ha
Method in brief: as §2

[9] = tested on: giant foxtail (Setaria faberi); experiment: Test G Post-Emergence Protocol; details: Setaria faberi, post-emergence, 312 h, read-out: Foxtail, Giant damage rating; for pest or weed control at 15.625 g/ha: 15.625 g ai/ha, evaluated after 13 days (100=total damage to plant; 0=no damage to plant); for pest or weed control at 62.5 g/ha: 62.5 g ai/ha
Method in brief: as §2

[10] = tested on: ivy-leaved morning glory (Ipomoea hederacea); experiment: Test G Post-Emergence Protocol; details: Ipomoea, post-emergence, 312 h, read-out: Morningglory, Ivy-leaved damage rating; for pest or weed control at 15.625 g/ha: 15.625 g ai/ha, evaluated after 13 days (100=total damage to plant; 0=no damage to plant); for pest or weed control at 62.5 g/ha: 62.5 g ai/ha; for pest or weed control at 62.5 g/ha / pest or weed control at 250 g/ha: evaluated after 13 days, 100=total damage to plant, 0=no damage to plant; for pest or weed control at 250 g/ha: 250 g ai/ha
Method in brief: as §2

[11] = tested on: corn (Zea mays); experiment: Test G Post-Emergence Protocol; details: Zea mays, post-emergence, 312 h, read-out: Corn damage rating; for plant injury at 15.625 g/ha: 15.625 g ai/ha, evaluated after 13 days (100=total damage to plant; 0=no damage to plant); for plant injury at 62.5 g/ha: 62.5 g ai/ha; for plant injury at 62.5 g/ha / plant injury at 250 g/ha: evaluated after 13 days, 100=total damage to plant, 0=no damage to plant; for plant injury at 250 g/ha: 250 g ai/ha
Method in brief: as §2

[12] = tested on: redroot pigweed (Amaranthus retroflexus); experiment: Test G Post-Emergence Protocol; details: Amaranthus retroflexus, post-emergence, 312 h, read-out: Pigweed, Redroot damage rating; for pest or weed control at 15.625 g/ha: 15.625 g ai/ha, evaluated after 13 days (100=total damage to plant; 0=no damage to plant); for pest or weed control at 62.5 g/ha: 62.5 g ai/ha; for pest or weed control at 62.5 g/ha / pest or weed control at 250 g/ha: evaluated after 13 days, 100=total damage to plant, 0=no damage to plant; for pest or weed control at 250 g/ha: 250 g ai/ha
Method in brief: as §2

[13] = evaluated after 13 days, 100=total damage to plant, 0=no damage to plant

In the case of `COc1ncc([C@@H]2CN(C)C(=O)[C@H]2C(=O)Nc2cccc(F)c2F)cc1Cl` (racemic) [Compound 1755], the pest or weed control at 15.625 g/ha [1] is reported as 0%, the pest or weed control at 62.5 g/ha [1] is reported as 20% and the pest or weed control at 250 g/ha [1] is reported as 70%. For the same compound, the pest or weed control at 15.625 g/ha [2] was 70%, the pest or weed control at 62.5 g/ha [2] was 80% and the pest or weed control at 250 g/ha [2] was 90%. The pest or weed control at 15.625 g/ha [3] was 80%, the pest or weed control at 62.5 g/ha [3] was 90% and the pest or weed control at 250 g/ha [3] was 90%. For the same compound, the pest or weed control at 15.625 g/ha [4] was 0%, the pest or weed control at 62.5 g/ha [4] was 20% and the pest or weed control at 250 g/ha [4] was 80%. The plant injury at 15.625 g/ha [5] was 20%, the plant injury at 62.5 g/ha [5] was 60% and the plant injury at 250 g/ha [5] was 80%. It also gave a pest or weed control at 15.625 g/ha [6] of 0%, a pest or weed control at 62.5 g/ha [6] of 40% and a pest or weed control at 250 g/ha [6] of 70%. It also gave a pest or weed control at 15.625 g/ha [7] of 10%, a pest or weed control at 62.5 g/ha [7] of 30% and a pest or weed control at 250 g/ha [7] of 60%. The pest or weed control at 15.625 g/ha [8] was 60%, the pest or weed control at 62.5 g/ha [8] was 70% and the pest or weed control at 250 g/ha [8] was 80%. It also gave a pest or weed control at 15.625 g/ha [9] of 70%, a pest or weed control at 62.5 g/ha [9, 13] of 80% and a pest or weed control at 15.625 g/ha [10] of 60%. The pest or weed control at 62.5 g/ha [10] was 70%, the pest or weed control at 250 g/ha [10] was 70% and the plant injury at 15.625 g/ha [11] was 10%. The plant injury at 62.5 g/ha [11] was 80%, the plant injury at 250 g/ha [11] was 80% and the pest or weed control at 15.625 g/ha [12] was 10%. The pest or weed control at 62.5 g/ha [12] was 20% and the pest or weed control at 250 g/ha [12] was 30%.
In the case of `CN1C[C@H](c2ccc(C(F)(F)F)cc2)[C@@H](C(=O)Nc2cccc3ccsc23)C1=O` (racemic) [Compound 1757], the pest or weed control at 15.625 g/ha [1] is reported as 0%, the pest or weed control at 62.5 g/ha [1] is reported as 0% and the pest or weed control at 250 g/ha [1] is reported as 0%. The pest or weed control at 15.625 g/ha [2] was 0%, the pest or weed control at 62.5 g/ha [2] was 10% and the pest or weed control at 250 g/ha [2] was 10%. It also gave a pest or weed control at 15.625 g/ha [3] of 0%, a pest or weed control at 62.5 g/ha [3] of 30% and a pest or weed control at 250 g/ha [3] of 70%. For the same compound, the pest or weed control at 15.625 g/ha [4] was 0%, the pest or weed control at 62.5 g/ha [4] was 0% and the pest or weed control at 250 g/ha [4] was 0%. It also gave a plant injury at 15.625 g/ha [5] of 0%, a plant injury at 62.5 g/ha [5] of 0% and a plant injury at 250 g/ha [5] of 0%. The pest or weed control at 15.625 g/ha [6] was 0%, the pest or weed control at 62.5 g/ha [6] was 0% and the pest or weed control at 250 g/ha [6] was 0%. For the same compound, the pest or weed control at 15.625 g/ha [7] was 0%, the pest or weed control at 62.5 g/ha [7] was 0% and the pest or weed control at 250 g/ha [7] was 0%. It also gave a pest or weed control at 15.625 g/ha [8] of 0%, a pest or weed control at 62.5 g/ha [8] of 10% and a pest or weed control at 250 g/ha [8] of 30%. The pest or weed control at 15.625 g/ha [9] was 0%, the pest or weed control at 62.5 g/ha [9, 13] was 20% and the pest or weed control at 250 g/ha ([9]; 250 g ai/ha, evaluated after 13 days, 100=total damage to plant, 0=no damage to plant) was 60%. For the same compound, the pest or weed control at 15.625 g/ha [10] was 0%, the pest or weed control at 62.5 g/ha [10] was 0% and the pest or weed control at 250 g/ha [10] was 10%. For the same compound, the plant injury at 15.625 g/ha [11] was 0%, the plant injury at 62.5 g/ha [11] was 0% and the plant injury at 250 g/ha [11] was 0%. For the same compound, the pest or weed control at 15.625 g/ha [12] was 0%, the pest or weed control at 62.5 g/ha [12] was 0% and the pest or weed control at 250 g/ha [12] was 0%.

— patent US12077503B2, “Substituted cyclic amides and their use as herbicides” (FMC CORPORATION, priority 2015, dated 2024)
